# Data taken from ChEMBL document CHEMBL1141032, “Design and synthesis of peptidomimetic severe acute respiratory syndrome chymotrypsin-like protease inhibitors” (J Med Chem, 2005).
# Assays:
# Replicase polyprotein 1a = Replicase polyprotein 1a (Severe acute respiratory syndrome-related coronavirus, UniProt P0C6U8); test: Inhibitory concentration required for antiviral activity against SARS-CoV 3CLpro protease
# [1] = molecular target: Replicase polyprotein 1a (Severe acute respiratory syndrome-related coronavirus) (UniProt P0C6U8); test: Inactivation rate constant against SARS-CoV 3CLpro protease
# [2] = molecular target: Replicase polyprotein 1a (Severe acute respiratory syndrome-related coronavirus) (UniProt P0C6U8); test: Half life period against SARS-CoV 3CLpro protease
# [3] = molecular target: Replicase polyprotein 1a (Severe acute respiratory syndrome-related coronavirus) (UniProt P0C6U8)
compound,measurement,setting,value
CCOC(=O)/C=C/[C@H](C[C@@H]1CCNC1=O)NC(=O)[C@@H](CC(=O)[C@@H](NC(=O)c1cc(C)on1)C(C)C)Cc1ccccc1,IC50,Replicase polyprotein 1a,45 µM
same,kinact,[1],0.014 min⁻¹
same,T1/2,[2],0.817 h
CCOC(=O)/C=C/[C@H](C[C@@H]1CCNC1=O)NC(=O)[C@H](Cc1ccccc1)CC(O)[C@@H](NC(=O)c1cc(C)on1)C(C)C (some centres undefined),kinact,[1],0.0025 min⁻¹
same,T1/2,[2],4.62 h
CCOC(=O)/C=C/[C@H](C[C@@H]1CCNC1=O)NC(=O)[C@H](CC=C(C)C)CC(=O)[C@@H](NC(=O)c1cc(C)on1)C(C)C,kinact,[3],0.045 min⁻¹
same,T1/2,[2],0.25 h
CC(C)C[C@H](NC(=O)[C@@H](O)C(S)C(=O)O)C(=O)NCCCCN=C(N)N (some centres undefined),kinact,[1],0.0022 min⁻¹
same,T1/2,[2],5.25 h
